Measured values published in patent US20220411422A1, “ERBB RECEPTOR INHIBITORS” (Dizal (Jiangsu) Pharmaceutical Co., Ltd., priority 2018, published 2022).
Blank lines part the entries; values can stand above or below the compound they belong to.

Key:
HER2 WT Amplification = biological target: T1, HER2 WT Amplification (Homo sapiens, UniProt P04626); assay: HER2 (Y1248) phosphorylation in BT474 cells, MSD kit; assay type: cell-based; conditions: pHER2 (Y1248), 4 h
T1 construct: The cell line expressed phosphorylated HER2 protein and its proliferation depended on the amplified gene; endogenous in cells; host or cells: BT474 (ATCC HTB-20)
Method: The plates were incubated for 4 h at 37° C. with 5% CO2 and then the HER2 (Y1248) phosphorylation level of cells in each well were measured with MSD Kit (Phospho-ErbB2 ([…]) Assay Whole Cell Lysate Kit: Cat #[…]-3). The assay is a electrochemiluminescent method (MESO SCALE DISCOVERY) for determining both phosphorylated and total HER2 of cells with an MSD SECTOR® Imager and then the ratio of p-HER2/total HER2 can be generated by the machine.

EGFR WT = biological target: T2, EGFR WT (Homo sapiens, UniProt P00533); assay: EGFR (Y1068) phosphorylation in NCI-H838 cells, MSD kit; assay type: cell-based; conditions: pEGFR (Y1068), 4 h then hEGF stimulation
T2 construct: which expresses wild type EGFR protein; endogenous in cells; host or cells: NCI-H838 (ATCC CRL-5844)

[1] = Blood brain barrier penetration assay in rats (short oral absorption model with blood, plasma and brain binding); assay type: in vivo; conditions: male, Han Wistar, Table 5, rat
Method: In vitro blood, plasma and brain binding assay was carried out with equilibrium dialysis device. […] At the end of incubation, a 50 μL aliquot from the receiver side and a 5 μL from the donor chamber were taken. The 5 μL sample was further diluted with 45 μL of blank blood, plasma or brain homogenate. Paired samples were matrix-matched with either buffer or blank matrix, and mixed for 2 min, and then precipitated with 150 μL cold acetonitrile with 100 ng/mL tolbutamide as internal standard. After centrifuging at 4000 rpm for 20 min, supernatant was diluted with 0.1% formic acid aqueous solution and analyzed for LC/MS/MS (API 4000, Applied Biosystems, Foster City). […] D is dilution factor. […] A Short oral absorption (SOA) model is an in-vivo screening model to identify brain penetration of a compound. Six male Han Wistar rats purchased from Beijing Vital River were orally dosed with the compound. […] Brain tissue was harvested and homogenized in 3× volume of 100 mM phosphate buffered saline (pH7.4). All samples were stored at ˜−70° C. prior to LC/MS/MS analysis. Standards were prepared by spiking blank plasma, blood, brain homogenate and artificial CSF. […] After 2 min vortex and 5 min centrifugation at 14,000 rpm, supernatant was analyzed by LC/MS/MS (API 4000, Applied Biosystems, Foster City). Two sets of standard curves were run at the beginning and end of each batch from blood sample analysis. For brain and CSF samples, one standard curve was analyzed along with test samples. Total brain levels, expressed as brain/blood ratio (Kp,brain) were measured by AUC(brain)/AUC(blood or plasma) in rodents after oral administration. Similarly, CSF levels represented by a ratio of CSF/blood exposure (Kp,CSF) were determined by AUC(CSF)/AUC(blood or plasma). Free fraction of test compound in biological matrix was determined by in vitro blood and brain binding assay. Kp,uu brain and Kp,uu CSF was calculated by the following equation: Kp,uu brain=AUC(brain)/AUC(blood or plasma)×(fubrain/fublood/plasma) and […] Moreover, the ability of Compounds 6 and 16 to cross BBB was assessed in both rat and monkey by measuring unbound brain-to-plasma partition ratio (Kpuu,brain) and unbound CSF-to-plasma partition ratio (Kpuu,CSF) with the method mentioned above.

wild type EGFR = biological target: T3, wild type EGFR (Homo sapiens, UniProt P00533); assay: pEGFR cellular activity in A431 cell line; assay type: cell-based
T3 construct: which expresses wild type EGFR protein; endogenous in cells; host or cells: A431
Method: A compound's activity of inhibition for EGFR WT can be evaluated with NCI-H838 (ATCC® CRL-5844™) and A431 cell line (the epidermoid carcinoma cell line A-431), which expresses wild type EGFR protein as the count screening to define the selectivity of the compound.
The compounds' inhibition of target modulation were determined as follows: NCI-H838 cells and A431 cells were sorted in 96 well plates (20000 cells/well) with the DMEM medium containing 1% FBS overnight and then treated with tested compounds at a series of concentrations (3 μM, 0.3 μM, 0.1 μM, 0.03 μM, 0.01 μM, 0.003 μM, 0.001 μM, 0.0001 μM). The plates were incubated for 4 h at 37° C. with 5% CO2 followed by the stimulation of recombinant hEGF (100 ng/ml for 10 Min, RD, Cat #236-EG) and then the EGFR (Y1068) phosphorylation level of cells in each well were measured with MSD Kit (MULTI-SPOT®96 4-Spot HB Prototype EGFR Triplex […]: pEGFR (Tyr1068), pEGFR (Tyr1173), Total EGFR (Cat #N45ZB-1). The assay is a electrochemiluminescent method (MESO SCALE DISCOVERY) for determining both phosphorylated and total EGFR of cells with an MSD SECTOR® Imager and then the ratio of p-EGFR/total EGFR can be generated by the machine. The percentage of inhibition was used the formula: % inhibition=100×[1−(ratio of sample well−ratio of Min ctrl well)/(ratio of Max−Ratio of Min ctrl well)]. […]

[2] = Clinical plasma and CSF PK in HER2+ MBC patients; assay type: in vivo, human; conditions: human, CSF, oral; patients with BM; read-out: averaged Kpuu,CSF
Method: The plasma concentration of Compound 6 at the dosage of 50 to 200 mg following single dose or multiple doses were tested. […] In patients with BM, averaged Kpuu,CSF was around 1.82 and 0.78 for Compound 6 and its active metabolite Compound 16, respectively.

pHER2 = biological target: T4, pHER2 (Homo sapiens, UniProt P04626); assay: pHER2 cellular activity in BT474c1 cell line; assay type: cell-based; conditions: BT474c1 cell line
T4 construct: pHER2 in cells expressing HER2; endogenous in cells; host or cells: BT474c1
Method: A compound's activity of selective inhibition for HER2 wild type amplification can be evaluated with BT474 cell line (ATCC® HTB-20™). The cell line expressed phosphorylated HER2 protein and its proliferation depended on the amplified gene, which could be used for in vitro PD and anti-proliferation assays.
The compounds' inhibition of target modulation were determined as follows: BT474 cells were sorted in 96 well plates (20000 cells/well) with the DMEM medium containing 10% FBS overnight and then treated with tested compounds at a series of concentrations (3 μM, 0.3 μM, 0.1 μM, 0.03 μM, 0.01 μM, 0.003 μM, 0.001 μM, 0.0001 μM). The plates were incubated for 4 h at 37° C. with 5% CO2 and then the HER2 (Y1248) phosphorylation level of cells in each well were measured with MSD Kit (Phospho-ErbB2 (Tyr1248) Assay Whole Cell Lysate Kit: Cat #K151CLD-3). The assay is a electrochemiluminescent method (MESO SCALE DISCOVERY) for determining both phosphorylated and total HER2 of cells with an MSD SECTOR® Imager and then the ratio of p-HER2/total HER2 can be generated by the machine. The percentage of inhibition was got from formula: % inhibition=100×[1−(ratio of sample well−ratio of Min ctrl well)/(ratio of Max−Ratio of Min ctrl well)]. The IC50 values were further calculated as the compounds concentration required for 50% inhibition in best-fit curves using Prism GraphPad 7.0 or Microsoft Xlfit software.

[3] = system: Human Pgp/BCRP transporter; assay: Human Pgp/BCRP transporter substrate assessment; assay type: in vitro ADME
[4] = Blood brain barrier penetration assay in monkeys; assay type: in vivo; conditions: CSF, oral; Table 5; monkey
Method: In vitro blood, plasma and brain binding assay was carried out with equilibrium dialysis device. Diluted blood (1:1 with DPBS pH7.4), EDTA-anticoagulated plasma, and brain homogenate (1:3 with DPBS pH7.4) were spiked with 5 μM test compound (in triplicate) and dialyzed against equal volume of 150 μL 100 mM PBS buffer (pH7.4) at 37° C. for appropriate equilibration time in a slowly rotated plate. At the end of incubation, a 50 μL aliquot from the receiver side and a 5 μL from the donor chamber were taken. The 5 μL sample was further diluted with 45 μL of blank blood, plasma or brain homogenate. […] After centrifuging at 4000 rpm for 20 min, supernatant was diluted with 0.1% formic acid aqueous solution and analyzed for LC/MS/MS (API 4000, Applied Biosystems, Foster City). Unbound fraction (fu) of test compound were calculated by the ratio of the buffer side response to the brain homogenate/plasma/blood side response, and unbound fraction (fu,bl, fu,pl and fu,br) of test compound in non-diluted blood and tissue were calculated from measured fu in homogenate and diluted blood with the following equation: fu,bl (fu,br)=(1/D)/[(1/fu−1)+1/D)]. […]
Total brain levels, expressed as brain/blood ratio (Kp,brain) were measured by AUC(brain)/AUC(blood or plasma) in rodents after oral administration. […]
Kp,uu brain and Kp,uu CSF was calculated by the following equation: […]

T4 sequence (P04626 23-1255): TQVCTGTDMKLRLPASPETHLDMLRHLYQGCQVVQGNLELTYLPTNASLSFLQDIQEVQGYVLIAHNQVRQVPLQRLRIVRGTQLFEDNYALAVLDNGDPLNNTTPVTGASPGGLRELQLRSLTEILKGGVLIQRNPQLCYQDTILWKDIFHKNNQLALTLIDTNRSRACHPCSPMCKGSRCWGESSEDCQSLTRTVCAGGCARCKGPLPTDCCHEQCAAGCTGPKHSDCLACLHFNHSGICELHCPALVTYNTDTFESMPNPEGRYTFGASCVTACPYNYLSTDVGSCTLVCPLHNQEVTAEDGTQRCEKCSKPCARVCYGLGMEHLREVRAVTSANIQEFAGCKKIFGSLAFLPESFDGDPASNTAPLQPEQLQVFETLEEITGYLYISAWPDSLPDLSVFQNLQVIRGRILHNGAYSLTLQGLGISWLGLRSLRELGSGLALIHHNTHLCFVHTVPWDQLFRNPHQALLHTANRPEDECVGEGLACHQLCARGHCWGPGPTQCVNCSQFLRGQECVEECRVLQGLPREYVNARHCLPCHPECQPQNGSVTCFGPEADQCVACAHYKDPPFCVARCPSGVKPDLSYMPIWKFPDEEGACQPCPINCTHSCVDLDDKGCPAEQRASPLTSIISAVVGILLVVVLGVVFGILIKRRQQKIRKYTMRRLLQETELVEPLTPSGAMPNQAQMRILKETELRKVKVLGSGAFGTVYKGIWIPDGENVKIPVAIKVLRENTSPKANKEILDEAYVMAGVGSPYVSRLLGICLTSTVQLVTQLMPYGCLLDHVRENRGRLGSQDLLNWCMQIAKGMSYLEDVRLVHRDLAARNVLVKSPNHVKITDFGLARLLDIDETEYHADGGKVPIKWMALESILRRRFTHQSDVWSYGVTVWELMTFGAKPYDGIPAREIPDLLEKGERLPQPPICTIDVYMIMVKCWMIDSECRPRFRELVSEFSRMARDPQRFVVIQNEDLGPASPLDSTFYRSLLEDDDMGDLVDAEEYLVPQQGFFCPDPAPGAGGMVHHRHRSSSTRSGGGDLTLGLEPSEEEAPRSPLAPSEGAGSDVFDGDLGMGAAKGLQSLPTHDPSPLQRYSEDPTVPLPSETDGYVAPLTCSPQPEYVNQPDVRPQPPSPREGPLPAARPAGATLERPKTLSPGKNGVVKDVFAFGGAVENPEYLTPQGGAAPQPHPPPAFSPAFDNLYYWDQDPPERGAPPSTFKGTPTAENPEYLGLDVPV
T1 sequence (P04626 23-1255): as above
T3 sequence (P00533 25-1210): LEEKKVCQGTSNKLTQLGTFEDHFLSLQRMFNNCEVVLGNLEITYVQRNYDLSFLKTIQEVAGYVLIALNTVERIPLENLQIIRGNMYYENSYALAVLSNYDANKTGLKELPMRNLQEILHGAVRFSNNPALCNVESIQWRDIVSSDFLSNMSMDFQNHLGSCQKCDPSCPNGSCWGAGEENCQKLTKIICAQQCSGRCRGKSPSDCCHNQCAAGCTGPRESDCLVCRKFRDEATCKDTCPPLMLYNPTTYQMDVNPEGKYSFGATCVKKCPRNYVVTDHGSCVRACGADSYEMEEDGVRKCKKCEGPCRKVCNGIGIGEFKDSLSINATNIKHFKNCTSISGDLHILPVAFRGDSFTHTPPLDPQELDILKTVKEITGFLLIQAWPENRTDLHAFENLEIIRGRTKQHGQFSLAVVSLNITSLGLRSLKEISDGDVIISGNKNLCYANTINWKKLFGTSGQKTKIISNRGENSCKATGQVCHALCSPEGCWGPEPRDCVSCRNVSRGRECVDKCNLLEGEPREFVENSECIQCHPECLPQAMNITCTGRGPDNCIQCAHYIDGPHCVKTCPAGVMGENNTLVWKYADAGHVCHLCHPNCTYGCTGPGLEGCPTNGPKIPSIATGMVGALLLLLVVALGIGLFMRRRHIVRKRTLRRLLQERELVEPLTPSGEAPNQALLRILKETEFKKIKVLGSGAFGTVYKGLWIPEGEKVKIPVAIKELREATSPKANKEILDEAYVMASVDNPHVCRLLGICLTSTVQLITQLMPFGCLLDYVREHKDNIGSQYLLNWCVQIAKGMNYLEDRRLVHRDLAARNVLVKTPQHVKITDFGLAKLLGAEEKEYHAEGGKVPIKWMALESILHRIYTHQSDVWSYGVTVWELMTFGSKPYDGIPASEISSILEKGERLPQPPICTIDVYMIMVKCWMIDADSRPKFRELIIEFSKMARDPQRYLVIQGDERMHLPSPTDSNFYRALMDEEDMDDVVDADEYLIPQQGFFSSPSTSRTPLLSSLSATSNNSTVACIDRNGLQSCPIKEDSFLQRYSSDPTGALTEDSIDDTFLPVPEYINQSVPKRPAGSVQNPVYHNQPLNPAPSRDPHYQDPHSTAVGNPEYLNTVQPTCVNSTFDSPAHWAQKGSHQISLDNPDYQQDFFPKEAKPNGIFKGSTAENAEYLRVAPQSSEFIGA
T2 sequence (P00533 25-1210): as above

IC50 (HER2 WT Amplification): 0.0131 µM
IC50 (EGFR WT): > 3 µM
Compound: Cc1cc(Nc2ncnc3cccc(O[C@@H]4CCN(C)C[C@@H]4F)c23)ccc1Oc1ccn2ccnc2c1 (single isomer, unassigned) [Compound 11]

Compound: COc1cc(O[C@H]2CCNCC2(F)F)c2c(Nc3ccc(Oc4ccn5ncnc5c4)c(C)c3)ncnc2c1 [Compound 16, (S)-N-(4-([1,2,4]triazolo[1,5-a]pyridin-7-yloxy)-3-methylphenyl)-5-((3,3-difluoropiperidin-4-yl)oxy)-7-methoxyquinazolin-4-amine]
Kp uu ([1]; CSF, read-out: Kp,uu,CSF): 0.23
Kp uu ([1]; brain, read-out: Kp,uu,brain): 0.12
IC50 (wild type EGFR): 0.74 µM
Kp uu [2]: ~0.78
IC50 (pHER2): 0.0035 µM
Human Pgp/BCRP transporter substrate [3]: No
Kp uu [4]: 0.87

Human Pgp/BCRP transporter substrate [3]: Yes
Compound: CCOc1cc2ncc(C#N)c(Nc3ccc(OCc4ccccn4)c(Cl)c3)c2cc1NC(=O)/C=C/CN(C)C [Neratinib, reference compound]

Kp uu ([1]; brain, read-out: Kp,uu,brain): 0.016
Human Pgp/BCRP transporter substrate [3]: Yes
Compound: Cc1cc(Nc2ncnc3ccc(NC4=NC(C)(C)CO4)cc23)ccc1Oc1ccn2ncnc2c1 [ONT380, reference compound]
